Our source for the IC50 values is ChEMBL document CHEMBL1128966, “Benzylphosphonic acid inhibitors of human prostatic acid phosphatase” (Bioorg Med Chem Lett, 1996).

Bounds are passed on as bounds.

Usually IC50 stands for the concentration that gives 50% inhibition. A low value points to higher potency.

This assay has as its target T1, Prostatic acid phosphatase (Homo sapiens, UniProt P15309).
T1 sequence (P15309 whole entry): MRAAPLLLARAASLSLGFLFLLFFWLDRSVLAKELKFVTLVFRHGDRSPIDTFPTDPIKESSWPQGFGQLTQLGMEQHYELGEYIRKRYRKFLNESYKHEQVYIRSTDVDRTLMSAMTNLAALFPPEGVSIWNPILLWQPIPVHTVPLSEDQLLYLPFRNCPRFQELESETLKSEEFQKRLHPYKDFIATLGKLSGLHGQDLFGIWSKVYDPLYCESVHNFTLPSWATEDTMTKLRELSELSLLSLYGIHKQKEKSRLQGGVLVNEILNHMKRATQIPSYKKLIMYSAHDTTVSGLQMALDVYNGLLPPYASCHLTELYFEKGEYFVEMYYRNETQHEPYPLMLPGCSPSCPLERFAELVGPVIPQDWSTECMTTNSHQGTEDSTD
Put plainly: Inhibition of human prostatic acid phosphatase was determined as inhibition of the hydrolysis of tyrosine phosphate.
Take `O=P(O)(O)C(c1ccccc1)c1ccc(-c2ccccc2)cc1` (configuration not stated): the IC50 was found to be 67 µM. Under `O=P(O)(O)Cc1cccc(C(F)(F)F)c1` stands 88 µM; under `O=P(O)(O)C1c2ccccc2Sc2ccccc21`, greater than 100 µM. Next, `O=P(O)(O)C1c2ccccc2-c2ccccc21`: greater than 500 µM. Take `O=P(O)(O)C(c1ccccc1)c1ccccc1`: the half-maximal inhibitory concentration (IC50) stood at 142 µM. Next, `O=P(O)(O)C(CCc1ccccc1)c1ccccc1` (configuration not stated): 14 µM. Turning to `O=P(O)(O)C1c2ccccc2Oc2ccccc21`, half-maximal inhibition (IC50) was put at 22 µM. This IC50 is about 1.6-fold higher than that of the molecule before. As for `O=P(O)(O)C1c2ccccc2CCc2ccccc21`, the half-maximal inhibitory concentration (IC50) is 94 µM.

The molecule `O=P(O)(O)C(Cc1ccc(-c2ccccc2)cc1)c1ccccc1` (configuration not stated) returned a half-maximal inhibitory concentration (IC50) of 16 µM. This IC50 lies about 5.9-fold lower than the previous one. Under `O=P(O)(O)C(c1ccc(-c2ccccc2)cc1)c1ccc(-c2ccccc2)cc1` stands 70 µM; under `O=P(O)(O)C1c2ccccc2C=Cc2ccccc21`, greater than 100 µM. As for `O=P(O)(O)Cc1ccccc1` [BENZYLPHOSPHONIC ACID], the half-inhibitory concentration (IC50) was greater than 500 µM.
